From PMC10304876 (Molecules, 2023)
Entries after “also recorded” stand apart in the source; their conditions may differ.

Test system: squirrel monkeys (Saimiri sciureus)
Experiment: Warm-water tail withdrawal in squirrel monkeys
Type: in vivo
Details: 52 °C water, cumulative dosing, n = 3 to 5
Experimental: Male squirrel monkeys (Saimiri sciureus) were housed in a climate-controlled vivarium with a 12 h light/dark cycle (7 a.m.–7 p.m.) in the McLean Hospital Animal Care Facility (licensed by the U.S. Department of Agriculture and compliant with guidelines provided by the Committee on Care and Use of Laboratory Animals of the Institute of Laboratory Animals Resources, Commission on Life Sciences, National Research Council; 2011). These experiments were approved under IACUC protocol #2015N000165.
Tail withdrawal latencies were assessed as described previously. Briefly, monkeys were seated in customized Plexiglas chairs that allowed their tails to hang freely. Tail withdrawal latencies were measured by immersing the subject’s tail in water held at 35 °C or 52 °C (temperatures were presented in a randomized order during successive test components). After obtaining a baseline tail withdrawal latency, complete dose response curves were generated in each subject using standard cumulative dosing procedures. Briefly, every 15 min after an injection, tail withdrawal latencies at each temperature were redetermined and subjects were injected with the next dose, such that the total (cumulative) dose was increased by ½ log10 units in each successive cycle. This procedure was repeated until either (a) the tail withdrawal latency from 52 °C water reached the maximum allowable latency (10 s), or (b) tail withdrawal latency no longer increased with increases in dose of the test drug.
(§1) All statistical analyses and graphic representations were completed with GraphPad Prism version 9.3.0 (GraphPad Software, San Diego, CA, USA) using log-transformed values of doses. Group means ± SEM tail withdrawal latencies (in sec) and minute volume ratios are plotted as a function of drug dose. Data were analyzed using one-way ANOVA with significance set at p < 0.05, followed by Dunnett’s multiple comparison test.

With `OCC[C@H]1[C@@H]2CCC[C@@]1(c1cccc(O)c1)CCN2CCc1ccccc1` [Compound 21, 3-((1S,5R,9R)-9-(2-Hydroxyethyl)-2-phenethyl-2-azabicyclo[3.3.1]nonan-5-yl)phenol] the “antinociceptive effects (tail withdrawal latency)” value (“antinociceptive effects” below) was “significantly increased tail withdrawal latency; also recorded: full antinociceptive effects in three of four subjects”.
With `OCCC[C@H]1[C@@H]2CCC[C@@]1(c1cccc(O)c1)CCN2CCc1ccccc1` [Compound 36] the “antinociceptive effects” value was “did not significantly increase tail withdrawal latency”.
For `OC[C@H]1[C@@H]2CCC[C@@]1(c1cccc(O)c1)CCN2CCc1ccccc1` [Compound 15, 3-((1S,5R,9R)-9-(Hydroxymethyl)-2-phenethyl-2-azabicyclo[3.3.1]nonan-5-yl)phenol], the “antinociceptive effects” value was “did not significantly increase tail withdrawal latency”.
For `CN1CC[C@]23c4c5ccc(O)c4O[C@H]2[C@@H](O)C=C[C@H]3[C@H]1C5` [Morphine, reference compound], the “antinociceptive effects” value was “significantly increased tail withdrawal latency”.

Target: T1, human δ-opioid receptor (OPRD1) (Homo sapiens, UniProt P41143)
Experiment: Forskolin-induced cAMP accumulation assay, DOR agonist
Details: not given

T1 sequence (P41143 whole entry): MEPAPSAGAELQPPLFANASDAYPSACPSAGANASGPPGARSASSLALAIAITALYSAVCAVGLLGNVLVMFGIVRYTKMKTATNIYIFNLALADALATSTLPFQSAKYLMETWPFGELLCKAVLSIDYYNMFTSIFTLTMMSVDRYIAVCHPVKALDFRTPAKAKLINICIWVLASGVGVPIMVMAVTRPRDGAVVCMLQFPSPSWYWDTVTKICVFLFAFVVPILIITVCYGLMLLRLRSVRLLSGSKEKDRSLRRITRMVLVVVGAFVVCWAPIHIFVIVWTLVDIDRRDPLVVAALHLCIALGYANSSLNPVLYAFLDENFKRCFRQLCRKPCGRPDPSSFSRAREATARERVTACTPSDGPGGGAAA

Going from `OCC[C@H]1[C@@H]2CCC[C@@]1(c1cccc(O)c1)CCN2CCc1ccccc1` [Compound 21, 3-((1S,5R,9R)-9-(2-Hydroxyethyl)-2-phenethyl-2-azabicyclo[3.3.1]nonan-5-yl)phenol] to `OCCC[C@H]1[C@H]2CCC[C@]1(c1cccc(O)c1)CCN2CCc1ccccc1` [Compound 34, 3-((1R,5S,9R)-9-(3-Hydroxypropyl)-2-phenethyl-2-azabicyclo[3.3.1]nonan-5-yl)phenol], the EC50 rises from 13 ± 3 nM to over 10000 nM.

Compared with `OC[C@H]1[C@H]2CCC[C@]1(c1cccc(O)c1)CCN2CCc1ccccc1` [Compound 11, 3-((1R,5S,9R)-9-(Hydroxymethyl)-2-phenethyl-2-azabicyclo[3.3.1]nonan-5-yl)phenol], `OC[C@H]1[C@@H]2CCC[C@@]1(c1cccc(O)c1)CCN2CCc1ccccc1` [Compound 15, 3-((1S,5R,9R)-9-(Hydroxymethyl)-2-phenethyl-2-azabicyclo[3.3.1]nonan-5-yl)phenol] is 14-fold lower in EC50: 8.5 ± 3.5 nM for the first, 0.6 ± 0.3 nM for the second. The second is the more potent here.

Compared with `OCCC[C@H]1[C@@H]2CCC[C@@]1(c1cccc(O)c1)CCN2CCc1ccccc1` [Compound 36], `COC[C@H]1[C@H]2CCC[C@]1(c1cccc(O)c1)CCN2CCc1ccccc1` [Compound 41, 3-((1R,5S,9R)-9-(Methoxymethyl)-2-phenethyl-2-azabicyclo[3.3.1]nonan-5-yl)phenol] is 42-fold lower in EC50: 102 ± 16 nM for the first, 2.4 ± 1.6 nM for the second.

Same assay, conditions: cAMP assay; normalized to the forskolin control

In the case of `OCC[C@H]1[C@@H]2CCC[C@@]1(c1cccc(O)c1)CCN2CCc1ccccc1` [Compound 21, 3-((1S,5R,9R)-9-(2-Hydroxyethyl)-2-phenethyl-2-azabicyclo[3.3.1]nonan-5-yl)phenol], the “DOR Agonist %Emax ± SEM” value is reported as 39 ± 3%.

Same assay, conditions: inhibition of forskolin-induced cAMP accumulation; CHO-K1 cells

With `OCCC[C@H]1[C@H]2CCC[C@]1(c1cccc(O)c1)CCN2CCc1ccccc1` [Compound 34, 3-((1R,5S,9R)-9-(3-Hydroxypropyl)-2-phenethyl-2-azabicyclo[3.3.1]nonan-5-yl)phenol] the “DOR Agonist EC50 ± SEM (nM)” value was “no DOR agonist activity”.

Same assay, conditions: read-out: DOR Agonist %Emax ± SEM, cAMP assay; normalized to the forskolin control

In order of falling Emax:
1. OCCC[C@H]1[C@@H]2CCC[C@@]1(c1cccc(O)c1)CCN2CCc1ccccc1 [Compound 36]  41%
2. OCC[C@H]1[C@@H]2CCC[C@@]1(c1cccc(O)c1)CCN2CCc1ccccc1 [Compound 21, 3-((1S,5R,9R)-9-(2-Hydroxyethyl)-2-phenethyl-2-azabicyclo[3.3.1]nonan-5-yl)phenol]  38%
3. OC[C@H]1[C@H]2CCC[C@]1(c1cccc(O)c1)CCN2CCc1ccccc1 [Compound 11, 3-((1R,5S,9R)-9-(Hydroxymethyl)-2-phenethyl-2-azabicyclo[3.3.1]nonan-5-yl)phenol]  35%
4. COC[C@H]1[C@H]2CCC[C@]1(c1cccc(O)c1)CCN2CCc1ccccc1 [Compound 41, 3-((1R,5S,9R)-9-(Methoxymethyl)-2-phenethyl-2-azabicyclo[3.3.1]nonan-5-yl)phenol]  20%
5. OC[C@H]1[C@@H]2CCC[C@@]1(c1cccc(O)c1)CCN2CCc1ccccc1 [Compound 15, 3-((1S,5R,9R)-9-(Hydroxymethyl)-2-phenethyl-2-azabicyclo[3.3.1]nonan-5-yl)phenol]  17%

Test system: squirrel monkeys (Saimiri sciureus)
Experiment: Squirrel monkey ventilation (whole-body plethysmograph, air vs 5% CO2)
Type: in vivo
Details: cumulative dosing, result in words
Experimental: These experiments were approved under IACUC protocol #2015N000165.
Ventilation measures were assessed as described previously. Briefly, squirrel monkeys were acclimated to a customized acrylic chamber (10′′d × 10′′w × 10′′h) that served as a whole-body plethysmograph (EMKA Technologies, Montreal, PQ, Canada). Gas (either air or a 5% CO2 in air mixture) was introduced to and extracted from the chamber at a constant flow rate of 5 L/min. Experimental sessions consisted of 4–6 consecutive 30 min cycles, each comprising a 20 min exposure to air followed by a 10 min exposure to 5% CO2. Drug effects were determined using cumulative dosing procedures, and injections were administered following each exposure to 5% CO2. Respiratory rate and tidal volume (mL/breath) were recorded over 1 min periods and were multiplied to provide minute volumes. Data from the last three minutes of each exposure to air or CO2 were averaged and used for analysis of drug effects on ventilation.
as §1

In the case of `OCC[C@H]1[C@@H]2CCC[C@@]1(c1cccc(O)c1)CCN2CCc1ccccc1` [Compound 21, 3-((1S,5R,9R)-9-(2-Hydroxyethyl)-2-phenethyl-2-azabicyclo[3.3.1]nonan-5-yl)phenol], the “respiratory depressant effects (ventilatory ratio: minute volumes in 5% CO2 vs room air)” value is reported as “reduced the ability of 5% CO2 to stimulate increases in ventilation”.
For `OCCC[C@H]1[C@@H]2CCC[C@@]1(c1cccc(O)c1)CCN2CCc1ccccc1` [Compound 36], the “respiratory depressant effects (ventilatory ratio: minute volumes in 5% CO2 vs room air)” value was “limited respiratory depressant effects”.
For `OC[C@H]1[C@@H]2CCC[C@@]1(c1cccc(O)c1)CCN2CCc1ccccc1` [Compound 15, 3-((1S,5R,9R)-9-(Hydroxymethyl)-2-phenethyl-2-azabicyclo[3.3.1]nonan-5-yl)phenol], the “respiratory depressant effects (ventilatory ratio: minute volumes in 5% CO2 vs room air)” value was “limited respiratory depressant effects”.

Same assay, conditions: ratio of minute volumes in 5% CO2 and room air

In the case of `OCC[C@H]1[C@@H]2CCC[C@@]1(c1cccc(O)c1)CCN2CCc1ccccc1` [Compound 21, 3-((1S,5R,9R)-9-(2-Hydroxyethyl)-2-phenethyl-2-azabicyclo[3.3.1]nonan-5-yl)phenol], the “ventilatory ratio reached with increasing dose” value is reported as “above 2”.

Target: T1, human δ-opioid receptor (OPRD1)
Experiment: Forskolin-induced cAMP accumulation assay, DOR antagonist
Details: not given

In order of falling IC50:
1. OC[C@H]1[C@@H]2CCC[C@@]1(c1cccc(O)c1)CCN2CCc1ccccc1 [Compound 15, 3-((1S,5R,9R)-9-(Hydroxymethyl)-2-phenethyl-2-azabicyclo[3.3.1]nonan-5-yl)phenol]  336 ± 139 nM
2. COC[C@H]1[C@H]2CCC[C@]1(c1cccc(O)c1)CCN2CCc1ccccc1 [Compound 41, 3-((1R,5S,9R)-9-(Methoxymethyl)-2-phenethyl-2-azabicyclo[3.3.1]nonan-5-yl)phenol]  54 ± 14 nM
3. OCCC[C@H]1[C@H]2CCC[C@]1(c1cccc(O)c1)CCN2CCc1ccccc1 [Compound 34, 3-((1R,5S,9R)-9-(3-Hydroxypropyl)-2-phenethyl-2-azabicyclo[3.3.1]nonan-5-yl)phenol]  41 ± 5 nM

Same assay, conditions: cAMP assay; Imax normalized to naltrexone

In order of falling “DOR Antagonist %Imax ± SEM” value:
1. OCCC[C@H]1[C@H]2CCC[C@]1(c1cccc(O)c1)CCN2CCc1ccccc1 [Compound 34, 3-((1R,5S,9R)-9-(3-Hydroxypropyl)-2-phenethyl-2-azabicyclo[3.3.1]nonan-5-yl)phenol]  111 ± 4%
2. OC[C@H]1[C@@H]2CCC[C@@]1(c1cccc(O)c1)CCN2CCc1ccccc1 [Compound 15, 3-((1S,5R,9R)-9-(Hydroxymethyl)-2-phenethyl-2-azabicyclo[3.3.1]nonan-5-yl)phenol]  109 ± 8%
3. COC[C@H]1[C@H]2CCC[C@]1(c1cccc(O)c1)CCN2CCc1ccccc1 [Compound 41, 3-((1R,5S,9R)-9-(Methoxymethyl)-2-phenethyl-2-azabicyclo[3.3.1]nonan-5-yl)phenol]  80 ± 8%

Same assay, conditions: cAMP assay; versus EC50 of SNC80

For `OCCC[C@H]1[C@H]2CCC[C@]1(c1cccc(O)c1)CCN2CCc1ccccc1` [Compound 34, 3-((1R,5S,9R)-9-(3-Hydroxypropyl)-2-phenethyl-2-azabicyclo[3.3.1]nonan-5-yl)phenol], the “DOR Antagonist IC50 ± SEM (nM)” value was “weak DOR antagonist activity”.

Target: T2, human µ-opioid receptor β-arrestin2 (Homo sapiens, UniProt P35372)
T2 construct: EFC (enzyme fragment complementation) fragment; host or cells: PathHunter CHO-K1
Experiment: cell-based
Details: not given

T2 sequence (P35372 whole entry, the tested form may be a part): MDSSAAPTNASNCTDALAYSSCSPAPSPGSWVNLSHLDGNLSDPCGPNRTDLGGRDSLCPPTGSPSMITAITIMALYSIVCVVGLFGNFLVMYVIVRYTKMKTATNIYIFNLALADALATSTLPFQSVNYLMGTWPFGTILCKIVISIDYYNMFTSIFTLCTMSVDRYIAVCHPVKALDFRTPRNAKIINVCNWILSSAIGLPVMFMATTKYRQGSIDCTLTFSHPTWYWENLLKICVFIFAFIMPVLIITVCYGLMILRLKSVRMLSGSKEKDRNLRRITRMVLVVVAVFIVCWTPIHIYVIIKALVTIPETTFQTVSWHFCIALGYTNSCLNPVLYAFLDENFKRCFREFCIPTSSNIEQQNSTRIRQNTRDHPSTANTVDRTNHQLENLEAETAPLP

First: OCC[C@H]1[C@@H]2CCC[C@@]1(c1cccc(O)c1)CCN2CCc1ccccc1 [Compound 21, 3-((1S,5R,9R)-9-(2-Hydroxyethyl)-2-phenethyl-2-azabicyclo[3.3.1]nonan-5-yl)phenol]
Second: OCCC[C@H]1[C@H]2CCC[C@]1(c1cccc(O)c1)CCN2CCc1ccccc1 [Compound 34, 3-((1R,5S,9R)-9-(3-Hydroxypropyl)-2-phenethyl-2-azabicyclo[3.3.1]nonan-5-yl)phenol]
The EC50 of the first is higher: over 50000 nM for the first, 34 nM for the second.

Compared with `OC[C@H]1[C@H]2CCC[C@]1(c1cccc(O)c1)CCN2CCc1ccccc1` [Compound 11, 3-((1R,5S,9R)-9-(Hydroxymethyl)-2-phenethyl-2-azabicyclo[3.3.1]nonan-5-yl)phenol], `OC[C@H]1[C@@H]2CCC[C@@]1(c1cccc(O)c1)CCN2CCc1ccccc1` [Compound 15, 3-((1S,5R,9R)-9-(Hydroxymethyl)-2-phenethyl-2-azabicyclo[3.3.1]nonan-5-yl)phenol] is higher in EC50: 187 nM for the first, over 50000 nM for the second. The first is the more potent here.

Going from `OCCC[C@H]1[C@@H]2CCC[C@@]1(c1cccc(O)c1)CCN2CCc1ccccc1` [Compound 36] to `COC[C@H]1[C@H]2CCC[C@]1(c1cccc(O)c1)CCN2CCc1ccccc1` [Compound 41, 3-((1R,5S,9R)-9-(Methoxymethyl)-2-phenethyl-2-azabicyclo[3.3.1]nonan-5-yl)phenol], the EC50 falls from over 50000 nM to 29 nM. The second is the more potent here.

In order of falling “Bias Factor” value:
1. OCCC[C@H]1[C@H]2CCC[C@]1(c1cccc(O)c1)CCN2CCc1ccccc1 [Compound 34, 3-((1R,5S,9R)-9-(3-Hydroxypropyl)-2-phenethyl-2-azabicyclo[3.3.1]nonan-5-yl)phenol]  14.0
2. OC[C@H]1[C@H]2CCC[C@]1(c1cccc(O)c1)CCN2CCc1ccccc1 [Compound 11, 3-((1R,5S,9R)-9-(Hydroxymethyl)-2-phenethyl-2-azabicyclo[3.3.1]nonan-5-yl)phenol]  13.4
3. COC[C@H]1[C@H]2CCC[C@]1(c1cccc(O)c1)CCN2CCc1ccccc1 [Compound 41, 3-((1R,5S,9R)-9-(Methoxymethyl)-2-phenethyl-2-azabicyclo[3.3.1]nonan-5-yl)phenol]  6.4

Same assay, conditions: read-out: MOR β-Arrestin Recruitment %Emax ± SEM

In order of falling Emax:
1. OCCC[C@H]1[C@H]2CCC[C@]1(c1cccc(O)c1)CCN2CCc1ccccc1 [Compound 34, 3-((1R,5S,9R)-9-(3-Hydroxypropyl)-2-phenethyl-2-azabicyclo[3.3.1]nonan-5-yl)phenol]  3.1%
2. COC[C@H]1[C@H]2CCC[C@]1(c1cccc(O)c1)CCN2CCc1ccccc1 [Compound 41, 3-((1R,5S,9R)-9-(Methoxymethyl)-2-phenethyl-2-azabicyclo[3.3.1]nonan-5-yl)phenol]  2.8%
3. OC[C@H]1[C@H]2CCC[C@]1(c1cccc(O)c1)CCN2CCc1ccccc1 [Compound 11, 3-((1R,5S,9R)-9-(Hydroxymethyl)-2-phenethyl-2-azabicyclo[3.3.1]nonan-5-yl)phenol]  2.7%
4. OCC[C@H]1[C@@H]2CCC[C@@]1(c1cccc(O)c1)CCN2CCc1ccccc1 [Compound 21, 3-((1S,5R,9R)-9-(2-Hydroxyethyl)-2-phenethyl-2-azabicyclo[3.3.1]nonan-5-yl)phenol]  0%
5. OCCC[C@H]1[C@@H]2CCC[C@@]1(c1cccc(O)c1)CCN2CCc1ccccc1 [Compound 36]  0%
6. OC[C@H]1[C@@H]2CCC[C@@]1(c1cccc(O)c1)CCN2CCc1ccccc1 [Compound 15, 3-((1S,5R,9R)-9-(Hydroxymethyl)-2-phenethyl-2-azabicyclo[3.3.1]nonan-5-yl)phenol]  0%

Test system: rodent
Experiment: not given
Parameters: method as in PMID 17625813
Details: rodent antinociceptive assays; cited from earlier work

In the case of `Oc1cccc([C@]23CCC[C@H]([C@H]2O)N(CCc2ccccc2)CC3)c1` [Compound 2], the “times more potent than morphine” value is given as about 500 times.
